System: non-replicating M. tuberculosis, luciferase expression
Assay: non-replicating M. tuberculosis inhibition, confirmation, luciferase expression (AID 651856)

Row | Structure (SMILES) | IC90
1 | O=S(=O)(Cc1cn(Cc2ccccc2)nn1)c1nnc(-c2ccc(Cl)cc2)o1 | 8 µM
2 | O=S(Cc1ccccc1)c1nnc(-c2ccccc2)o1 (stereo not drawn) | 1 µM
3 | O=S(Cc1cn(Cc2ccccc2)nn1)c1nnc(-c2ccc(Cl)cc2)o1 (stereo not drawn) | 1 µM
4 | c1ccc(CSc2nnc(-c3ccccc3)o2)cc1 | 16 µM
5 | O=S(=O)(Cc1ccccc1)c1nnc(-c2ccccc2)o1 | 4 µM
6 | Clc1ccc(-c2nnc(SCc3cn(Cc4ccccc4)nn3)o2)cc1 | 4 µM
7 | Fc1ccc(Cn2cc(CSc3nnc(-c4ccc(Cl)cc4)o3)nn2)cc1 | 2 µM
8 | O=S(Cc1cn(Cc2ccc(F)cc2)nn1)c1nnc(-c2ccc(Cl)cc2)o1 (stereo not drawn) | 4 µM
